{"source": "patent US7605280B2", "about": "“Anthraquinone and its derivatives” (Biostatus Limited, priority 1998, dated 2009)", "experiment_in_all_cases": "FACScan (Cytometer C) flow cytometric analysis of DRAQ5-labelled cells", "type_in_all_cases": "cell-based, human", "key": {"Lymphocytes": {"test_system": "Lymphocytes", "protocol": "(§1) Suspension cultures were analysed by flow cytometry without washing. Human blood was obtained using routine venepuncture of a healthy donor and samples manipulated using standard haematological procedures for the isolation of mononuclear blood cells and surface antigen recognition using antibody panels (see Table 1).\n(§2) Cells were analysed using one of four flow cytometers according to the excitation requirements. • Cytometer A: Single beam high power 647 nm krypton laser excitation: The system was a custom-built cytometer and incorporated an Innova 3000K krypton laser (Coherent Corp., Palo Alto, Calif., USA) tuned to the 647 nm line. Forward light scatter, 90° light scatter and fluorescence emissions were collected for 1×10^4 cells using the 90° light scatter parameter as the master signal. The optical system permitted the analysis of various fluorescence emission wavelengths including: >715 nm (termed low infra-red) and, as reported here >780 nm fluorescence (infra-red ). Forward and 90° light scatter were analysed for the identification of cell debris. Laser power was set at 200 mW and linear amplifiers were used for the fluorescence signals. The analysis optics included a 675 nm cold dichroic mirror, ambient laboratory temperature was approximately 12° C. and the sheath reservoir was maintained at 10° C. Filters were supplied by Melles Griot. Median, mean and mode parameters were calculated for the distribution of fluorescence intensity-values throughout a given cell population. In all experiments, median and mean values produced very similar results. Median values alone are reported since this parameter is less affected by the presence of highly fluorescent cells beyond the upper limit for quantification. • Cytometer B: Dual beam low power 633 nm/high power 488 nm laser excitation: The system was a FACS 440 cell sorter (Becton Dickinson Inc., Cowley, UK) incorporating a Spectra Physics argon ion laser (max 500 mW output), tuned to the 488 nm line (100 mW output), and a secondary Spectra Physics 156 helium-neon laser emitting at 633 nm (emitting <5 mW), with a temporal beam separation of about 30 μsec. Forward light scatter, 90° light scatter and fluorescence emissions were collected for 1×10^4 cells using the forward light scatter parameter as the master signal from the primary 488 nm beam, while side scatter was collected through a 488/10 nm band-pass filter. The analysis optics included: i) a cold dichroic mirror (transmitting >675 nm), ii) fluorescence from fluorescein excited by the 488 nm beam detected at a PMT guarded by a 535/15 nm band-pass filter with no signal delay, and iii) a red-sensitive PMT with an appropriate delay, additionally guarded by a 620 nm long-pass filter, to detect the transmitted beam of DRAQ5-associated fluorescence at wavelengths beyond 675 nm (high-red and extending into the infra red region of the spectrum) Forward and 90° light scatter were analysed to exclude any cell debris. All parameters were acquired at 256 channel resolution with Consort 30 software (Becton Dickinson) and subsequently analysed with WinMDI software (J. Trotter, La Jolla, Calif.). The system employed the same analysis optics when used in the single 488 nm beam mode but with no signal delay for the red-sensitive PMT. • Cytometer C: Single beam, low power 488 nm laser excitation: The system was a FACScan (Becton Dickinson; Inc., Cowley, UK) incorporating an argon ion laser (max 15 mW output), tuned to the 488 nm line. Forward light scatter, 90° light scatter and fluorescence emissions were collected for 1×10^4 cells using the forward light scatter parameter as the master signal. The standard analysis optics provided the FL1 […]/FL3 (red) PMT parameters with pulse analysis performed on the FL3 originating signals. • Cytometer D: Triple beam medium power 633 nm/medium power 488 nm/medium power multiline-UV laser excitation: […]"}, "Monocytes": {"test_system": "Monocytes", "protocol": "as §1, §2"}, "Granulocytes": {"test_system": "Granulocytes", "conditions": "20 μM DRAQ5, 5 min", "protocol": "as §1, §2"}, "[1]": {"conditions": "Preparation 3, 20 μM DRAQ5, 120 min"}, "[2]": {"conditions": "Preparation 3, 4.8 × 10^5/ml, 20 μM DRAQ5, 5 min"}, "[3]": {"conditions": "Preparation 3, 7.5 × 10^5/ml, 20 μM DRAQ5, 5 min"}, "[4]": {"conditions": "Preparation 3 Ficoll-isolated viable mononuclear blood cells, 2.5 × 10^5/ml, 20 μM DRAQ5, 5 min"}, "[5]": {"conditions": "Preparation 4 (Preparation 3 plus surface antigen analysis), 20 μM DRAQ5, 5 min"}, "[6]": {"conditions": "Preparation 5 whole blood, viable cells, 20 μM DRAQ5, 5 min"}, "[7]": {"conditions": "Preparation 6 whole blood, cells lysed and fixed, 20 μM DRAQ5, 5 min"}}, "data": [{"smiles": "CN(C)CCNc1ccc(O)c2c1C(=O)c1c(O)ccc(NCCN(C)C)c1C2=O", "note": "[DRAQ5]", "values": [{"measurement": "Mean fluorescence intensity (±sd) of gated population", "setting": "Lymphocytes; [1]", "value": "299.1 ± 23.9"}, {"measurement": "Mean fluorescence intensity (±sd) of gated population", "setting": "Lymphocytes; [2]", "value": "215.9 ± 26.3"}, {"measurement": "Mean fluorescence intensity (±sd) of gated population", "setting": "Lymphocytes; [3]", "value": "234.1 ± 27.0"}, {"measurement": "Mean fluorescence intensity (±sd) of gated population", "setting": "Lymphocytes; [4]", "value": "227.4 ± 24.5"}, {"measurement": "Mean fluorescence intensity (±sd) of gated population", "setting": "Lymphocytes; [5]", "value": "261.6 ± 26.3"}, {"measurement": "Mean fluorescence intensity (±sd) of gated population", "setting": "Lymphocytes; [6]", "value": "257.3 ± 35.0"}, {"measurement": "Mean fluorescence intensity (±sd) of gated population", "setting": "Lymphocytes; [7]", "value": "228.5 ± 28.5"}, {"measurement": "Mean fluorescence intensity (±sd) of gated population", "setting": "Monocytes; [1]", "value": "342.2 ± 22.4"}, {"measurement": "Mean fluorescence intensity (±sd) of gated population", "setting": "Monocytes; [2]", "value": "301.8 ± 24.3"}, {"measurement": "Mean fluorescence intensity (±sd) of gated population", "setting": "Monocytes; [3]", "value": "311.0 ± 30.9"}, {"measurement": "Mean fluorescence intensity (±sd) of gated population", "setting": "Monocytes; [4]", "value": "302.9 ± 25.4"}, {"measurement": "Mean fluorescence intensity (±sd) of gated population", "setting": "Monocytes; [5]", "value": "317.9 ± 27.3"}, {"measurement": "Mean fluorescence intensity (±sd) of gated population", "setting": "Monocytes; [6]", "value": "274.6 ± 41.0"}, {"measurement": "Mean fluorescence intensity (±sd) of gated population", "setting": "Monocytes; [7]", "value": "240.2 ± 28.1"}, {"measurement": "enhanced staining potential of monocytes versus lymphocytes", "setting": "Monocytes; Preparations 3 and 4", "value": "1.14-1.4 fold"}, {"measurement": "Mean fluorescence intensity (±sd) of gated population", "setting": "Granulocytes; Preparation 5 whole blood, viable cells", "value": "248.4 ± 35.9"}, {"measurement": "Mean fluorescence intensity (±sd) of gated population", "setting": "Granulocytes; Preparation 6 whole blood, cells lysed and fixed", "value": "254.3 ± 31.1"}]}]}
